Experimental data reported in US6809096B1, “Phenanthroline-7-one derivatives and their therapeutic uses” (Laboratoire L. Lafon, priority 1999, dated 2004).

Key:
[1] = tested on: 12 human cancer cell lines (U-373MG, U-87MG, SW1088, A549, A-427, HCT-15, LoVo, T-47D, MCF7, J82, T24, PC-3); assay: Cytotoxic activity on tumour cell lines in culture (MTT test); assay type: cell-based; conditions: mean IC50 calculated from the individual cytotoxic activities on each of the 12 tumour lines, 72 hours incubation
Procedure: 1—Cytotoxic Activity on Tumour Cell Lines in Culture (MTT Test)
The influence of the compounds of formula (I) and of (Ia) on tumour cells was evaluated using the MTT calorimetric test (T. Mosman, J. Immunol. Methods, 1983; 65: 55-63, J. Carmichael et al., Cancer Res. 1987; 47: 936-942).
The principle of the MTT test is based on the mitochondrial reduction by metabolically active alive cells of the yellow-coloured product MTT (3-(4,5-dimethylthiazol-2-yl)-2,5-diphenyltetrazolium bromide) to a blue-coloured product, formazan. The amount of formazan thus obtained is directly proportional to the amount of live cells present in the culture well or wells. This amount of formazan is measured by spectrophotometry.
The cell lines are maintained in monolayer culture at 37° C. in stoppered culture dishes containing 25 MM HEPES MEM (Minimum Essential Medium) base medium. This medium is well suited to the growth of a range of varied diploid or primary mammalian cells. This medium is subsequently supplemented: […]
with an amount of 5% of FCS (Foetal Calf Serum) decomplemented at 56° C. for 1 hour, with 0.6 mg/ml of L-glutamine, with 200 IU/ml of penicillin, with 200 μg/ml of streptomycin, with 0.1 mg/ml of gentamicin.
The 12 human cancer cell lines which were used were obtained from the American Type Culture Collection (ATCC, Rockville, Md., USA). These 12 cell lines are:
U-373MG (ATCC code: HTB-17) and U-87MG (ATCC code: HTB-14), which are two glioblastomas, SW1088 (ATCC code: HTB-12) which is an astrocytoma, A549 (ATCC code: CCL-185) and A-427 (ATCC code: HTB-53), which are two non-small-cell lung cancers, HCT-15 (ATCC code: CCL-225) and LoVo (ATCC code: CCL-229), which are two colorectal cancers, T-47D (ATCC code: HTB-133) and MCF7 (ATCC code: HTB-22), which are two breast cancers, J82 (ATCC code: HTB-1) and T24 (ATCC code: […]), which are two bladder cancers, PC-3 (ATCC code: CRL-1435), which is a prostate cancer.
Experimentally: 100 μl of a cell suspension comprising 20 000 to 50 000 (depending on the cell type used) cells/ml of culture medium are inoculated in flat-bottomed 96-well multi-well plates and are incubated at 37° C. under an atmosphere comprising 5% of CO2 and 70% humidity. After incubating for 24 hours, the culture medium is replaced with 100 μl of fresh medium comprising either the various test compounds at concentrations varying from 10^−5 to 10^−10 M of the solvent used to dissolve the -test products (control condition). After incubating for 72 hours under the above conditions, the culture medium is replaced with 100 μl of a yellowish solution of MTT dissolved, in a proportion of 1 mg/ml, in RPMI 1640. The microplates are reincubated for 3 hours at 37° C. and then centrifuged for 10 minutes at 400 g. The yellowish MTT solution is removed and the blue formazan crystals formed at the cellular level are dissolved in 100 μl of DMSO. The microplates are subsequently agitated for 5 minutes. The intensity of the resulting blue coloration, and thus of the conversion of the yellow MTT product into blue formazan by the cells which are still alive at the end of the experiment, is quantified by spectrophotometry using a device of DYNATECH IMOASSAY SYSTEM type at wavelengths of 570 nm and 630 nm corresponding respectively to the maximum absorption wavelengths of formazan and to the background noise. Software built into the spectrophotometer calculates the mean optical density values and the standard deviation (Std. Dev.) and standard error of the mean (SEM) values.
The inhibitory activity on the cell growth of the compounds of formula (I) and (Ia) on the various tumour cell lines was measured in comparison with that of the natural product.

HS-MXT tumours = assay: In vivo antitumour activity, hormone-sensitive mouse mammary adenocarcinoma MXT (HS-MXT), tumour growth; conditions: 5 mg/kg intraperitoneally; for Tumour area (expressed as %): decrease (−) or increase (+) in HS-MXT tumour area vs control on the 31st day after grafting, 9 administrations
Procedure: The tests were carried out on models of:
hormone-sensitive mouse mammary adenocarcinoma MXT (HS-MXT),
The model of mouse mammary adenocarcinoma MXT of Watson C. et al. (Cancer Res., 1977; […]: 3344-48), grafted onto B6D2F1/Jico mice aged from 4 to 6 weeks, is derived from the mammary gland milk ducts. Initially hormone-sensitive (HS-MXT model), the differentiated tumour develops in the direction of an undifferentiated hormone-insensitive tumour (HI-MXT model). […] This is the case, for example, with cyclophosphamide, etoposide or adriamycin.
When the MTD value of a product was determined, its in vivo antitumour activity was characterized at the MTD/2, MTD/4 and MTD/8 doses on the models of mammary adenocarcinoma of mouse origin HS-MXT and of mouse mammary carcinoma HI-MXT and on the model of subcutaneous lymphoma L 1210.
In all the examples presented below, whatever the model, the control condition is represented by a batch of 9 or 15 mice to which is administered, for 3 consecutive weeks and at the rate of 3 administrations (Monday, Wednesday and Friday) per week, a volume of 0.2 ml of physiological saline comprising the solvent used to dissolve the various compounds of formula (I) and (Ia) used.
i)—The tumour growth was evaluated by measuring twice weekly (Monday and Friday) the area of the grafted HS-MXT, HI-MXT or L 1210 tumours. This area is calculated by multiplying the value of the two greatest perpendicular axes of the tumour. The value of these axes is measured using a sliding caliper.
The influence of the two products CRL 8293 and CRL 8294 on the growth of HS-MXT tumours will be presented below by way of example. Each batch of mice grafted with the HS-MXT tumours relating to a given experimental condition comprises 9 animals.
The product CRL 8293 is administered intraperitoneally. The first injection of the product is carried out on the seventh day postgrafting (D7) at the rate of 3 injections per week (Monday, Wednesday and Friday) for 3 consecutive weeks and at a dose of 5 mg/kg.
The product CRL 8294 is administered alone by the intraperitoneal route. The first injection of the product is carried out on the seventh day postgrafting (D7) at the rate of 3 injections per week (Monday, Wednesday and Friday) for 3 consecutive weeks and at a dose of 5 mg/kg.
The decreases (−) or the increases (+) in the area of the HS-MXT tumours induced with treatments 10 and 20 with respect to the control condition on the 31st day after the tumour grafting, i.e. after the 9 administrations provided in the experimental protocol of the 2 products CRL 8293 and CRL 8294, are shown, as percentage, in the following Table IV. 100% of the control animals are still alive on the 31st day postgrafting.

Structure (SMILES) | IC50 ([1]; Homo sapiens) | growth of the HS-MXT tumours (in words) (HS-MXT tumours) | Tumour area (expressed as %) (HS-MXT tumours) | IC50 [1]
O=C1c2cccnc2-c2nccc3ccnc1c23 [CRL 8293, 7H-Pyrido[4,3,2-de][1,10]phenanthroline-7-one] | 1250 nM | very highly significant decrease | −45% | –
O=C1c2ncccc2-c2nccc3ccnc1c23 [CRL 8294, 7H-Pyrido[4,3,2-de][1,7phenanthroline-7-one] | – | very highly significant decrease | −64% | 1450 nM
